What is called inhibition is the percentage by which the read-out fell short of the control. A higher inhibition goes with a strong effect.

The experiment deals with T1, NA transporter (Rattus norvegicus, UniProt Q9WTR4).
T1 construct: synaptosomes from rat brain regions were freshly isolated; from tissue; host or cells: P2 synaptosome fraction from hypothalamus of male rat brain
The experiment can be described thus: Noradrenalin uptake inhibition (NA-uptake) in synaptosomes. Format: biochemical. As to conditions: rat hypothalamus synaptosomes. An excerpt: Tests on Noradrenalin Uptake Inhibition (NA-Uptake Inhibition)
In order to be able to carry out these in vitro studies, synaptosomes from rat brain regions were freshly isolated.

T1 sequence (Q9WTR4 1-597): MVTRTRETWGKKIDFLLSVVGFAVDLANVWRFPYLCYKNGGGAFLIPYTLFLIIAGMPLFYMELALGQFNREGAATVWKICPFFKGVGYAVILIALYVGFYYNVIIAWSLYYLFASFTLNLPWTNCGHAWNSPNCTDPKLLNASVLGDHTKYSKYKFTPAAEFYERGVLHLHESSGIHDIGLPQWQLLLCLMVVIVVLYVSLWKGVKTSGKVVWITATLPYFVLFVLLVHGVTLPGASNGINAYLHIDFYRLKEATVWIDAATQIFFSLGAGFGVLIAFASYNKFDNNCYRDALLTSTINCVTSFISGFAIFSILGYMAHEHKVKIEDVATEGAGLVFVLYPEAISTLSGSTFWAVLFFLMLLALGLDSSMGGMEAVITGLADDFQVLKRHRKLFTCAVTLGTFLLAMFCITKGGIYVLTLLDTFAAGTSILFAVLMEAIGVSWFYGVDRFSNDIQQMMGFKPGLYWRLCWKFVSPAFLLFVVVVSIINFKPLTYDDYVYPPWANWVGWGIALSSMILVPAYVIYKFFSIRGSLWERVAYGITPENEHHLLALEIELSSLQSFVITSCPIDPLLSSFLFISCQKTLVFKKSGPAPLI

With `O=C(C1=NOC2(CCN(S(=O)(=O)c3ccc(OC(F)(F)F)cc3)CC2)C1)N(CCc1ccccc1)Cc1ccccc1` [Example 97, 8-(4-trifluoromethoxy-benzenesulphonyl)-1-oxa-2,8-diaza-spiro[4,5]dec-2-ene-3-carboxylic acid benzyl-phenethyl-amide], the inhibition at 10 µM was 83%.
Still for that read-out and setting: then `COC(=O)CCC(=O)N1CCC2(CC1)CC(C(=O)NCc1cccs1)=NO2` [Example 114, 4-oxo-4-{3-[(thiophen-2-ylmethyl)-carbamoyl]-1-oxa-2,8-diaza-spiro[4,5]dec-2-ene-8-yl}-butyric acid methyl ester], with 42%; and `Cc1cc(C(=O)N2CCC3(CC2)CC(C(=O)NCc2ccccc2)=NO3)c(C)o1` [Example 217, 8-(2,5-dimethyl-furan-3-carbonyl)-1-oxa-2,8-diaza-spiro[4,5]dec-2-ene-3-carboxylic acid benzylamide], with 40%.
On to `O=C(NC1CCCC1)C1=NOC2(CCN(C(=O)c3cccnc3Oc3ccccc3)CC2)C1` [Example 153, 8-(2-phenoxy-pyridine-3-carbonyl)-1-oxa-2,8-diaza-spiro[4,5]dec-2-ene-3-carboxylic acid cyclopentylamide], for which the inhibition at 10 µM is 45%.
Still for that read-out and setting: the figure for `COc1ccc(Br)cc1S(=O)(=O)N1CCC2(CC1)CC(C(=O)NC1CCCC1)=NO2` [Example 173, 8-(5-bromo-2-methoxy-benzenesulphonyl)-1-oxa-2,8-diaza-spiro[4,5]dec-2-ene-3-carboxylic acid cyclopentylamide] is 60%.
Same read-out and setting: then `O=C(NCC1CC1)C1=NOC2(CCN(C(=O)c3ccc4ccccc4c3)CC2)C1` [Example 204, 8-(naphthalene-2-carbonyl)-1-oxa-2,8-diaza-spiro[4,5]dec-2-ene-3-carboxylic acid cyclopropylmethyl-amide], with 48%; and `O=C(NCC1CC1)C1=NOC2(CCN(C(=O)c3ccc(SC(F)(F)F)cc3)CC2)C1` [Example 108, 8-(4-trifluoromethylsulphanyl-benzoyl)-1-oxa-2,8-diaza-spiro[4,5]dec-2-ene-3-carboxylic acid cyclopropylmethyl-amide], with 42%; and `O=C(NCc1ccccc1)C1=NOC2(CCN(S(=O)(=O)c3cccs3)CC2)C1` [Example 136, 8-(thiophene-2-sulphonyl)-1-oxa-2,8-diaza-spiro[4,5]dec-2-ene-3-carboxylic acid benzylamide], with 53%.
`CCOC(=O)N1CCC(NC(=O)C2=NOC3(CCN(S(=O)(=O)c4cccc(C(F)(F)F)c4)CC3)C2)CC1` [Example 122, 4-{[8-(3-trifluoromethyl-benzenesulphonyl)-1-oxa-2,8-diaza-spiro[4,5]dec-2-ene-3 carbonyl]-amino}-piperidine-1-carboxylic acid ethyl ester] registered an inhibition at 10 µM of 41%.
On the same count and under the same terms, then `CC(NC(=O)C1=NOC2(CCN(S(=O)(=O)c3cccs3)CC2)C1)c1ccccc1` (stereo not drawn) [Example 8, 8-(thiophene-2-sulphonyl)-1-oxa-2,8-diaza-spiro[4,5]dec-2-ene-3-carboxylic acid (1-phenyl-ethyl)-amide], with 48%.
Consider `CN(CCCNC(=O)C1=NOC2(CCN(S(=O)(=O)c3ccc(Cl)s3)CC2)C1)c1ccccc1` [Example 89], for which the “NA-uptake, 10 μM, % inhibition” value came out at 68%.
Compound `O=C(C1=NOC2(CCN(S(=O)(=O)c3cc(Cl)ccc3Cl)CC2)C1)N(CCc1ccccc1)Cc1ccccc1` [Example 98, 8-(2,5-dichloro-benzenesulphonyl)-1-oxa-2,8-diaza-spiro[4,5]dec-2-ene-3-carboxylic acid benzyl-phenethyl-amide] came in with an inhibition at 10 µM of 82%.
In the case of `Cc1ccccc1N1CCN(C(=O)C2=NOC3(CCN(S(=O)(=O)Cc4ccccc4)CC3)C2)CC1` [Example 133, (8-phenylmethanesulphonyl-1-oxa-2,8-diaza-spiro[4,5]dec-2-en-3-yl)-(4-o-tolyl-piperazin-l-yl)-methanone], the “NA-uptake, 10 μM, % inhibition” value is on record as 48%.
Still for that read-out and setting: then `Cc1ccc(S(=O)(=O)N2CCC3(CC2)CC(C(=O)N2CCN(C(C)c4ccccc4)CC2)=NO3)cc1` (stereo not drawn) [Example 32, [4-(1-phenyl-ethyl)-piperazin-l-yl]-[8-(toluene-4-sulphonyl)-1-oxa-2,8-diaza-spiro[4,5]dec-2-en-3-yl]-methanone], with 43%.
The same measure, in the same setting: the figure for `O=C(NCCc1cccc(C(F)(F)F)c1)C1=NOC2(CCN(S(=O)(=O)c3ccc(F)cc3)CC2)C1` [Example 196] is 40%.
Compound `O=C(NCc1ccccc1)C1=NOC2(CCN(C(=O)c3cccc(SC(F)F)c3)CC2)C1` [Example 180, 8-(3-difluoromethylsulphanyl-benzoyl)-1-oxa-2,8-diaza-spiro[4,5]dec-2-ene-3-carboxylic acid benzylamide] showed an inhibition at 10 µM of 61%.
For `CCOC(=O)CCNC(=O)C1=NOC2(CCN(S(=O)(=O)c3ccccc3Cl)CC2)C1` [Example 116, 3-{[8-(2-chloro-benzenesulphonyl)-1-oxa-2,8-diaza-spiro[4,5]dec-2-ene-3-carbonyl]-amino}-propionic acid ethyl ester], 10 µM produced 60% inhibition.
Still for that read-out and setting: the figure for `CC(C)CC(NC(=O)C1=NOC2(CCN(S(=O)(=O)c3cccs3)CC2)C1)C(=O)OC(C)(C)C` (stereo not drawn) [Example 145, 4-methyl-2-{[8-(thiophene-2-sulphonyl)-1-oxa-2,8-diaza-spiro[4,5]dec-2-ene-3-carbonyl]-amino]-pentanoic acid tert-butyl ester] is 46%.
Same read-out and setting: then `O=C(NCc1ccccc1)C1=NOC2(CCN(C(=O)COCc3ccccc3)CC2)C1` [Example 171, 8-(2-benzyloxy-acetyl)-1-oxa-2,8-diaza-spiro[4,5]dec-2-ene-3-carboxylic acid benzylamide], with 73%.
`O=C(NCc1cccc2ccccc12)C1=NOC2(CCN(S(=O)(=O)c3ccc(Cl)s3)CC2)C1` [Example 128, 8-(5-chloro-thiophene-2-sulphonyl)-1-oxa-2,8-diaza-spiro[4,5]dec-2-ene-3-carboxylic acid naphthalen-l-ylmethyl-amide]: the “NA-uptake, 10 μM, % inhibition” value came to 45%.
Consider `COc1ccc(C(=O)N2CCC3(CC2)CC(C(=O)NCc2ccccc2)=NO3)cc1` [Example 131, 8-(4-methoxy-benzoyl)-1-oxa-2,8-diaza-spiro[4,5]dec-2-ene-3-carboxylic acid benzylamide], for which the inhibition at 10 µM was 57%.
`O=C(NC1CCCC1OCc1ccccc1)C1=NOC2(CCN(S(=O)(=O)Cc3ccccc3)CC2)C1` (stereo not drawn) [Example 20, 8-phenylmethanesulphonyl-1-oxa-2,8-diaza-spiro[4,5]dec-2-ene-3-carboxylic acid (2-benzyloxy-cyclopentyl)-amide]: 10 µM produced 70% inhibition.
Take `O=C(C1=NOC2(CCN(S(=O)(=O)c3ccc(F)cc3)CC2)C1)N1CCN(CCCc2ccccc2)CC1` [Example 186, [8-(4-fluoro-benzenesulphonyl)-1-oxa-2,8-diaza-spiro[4,5]dec-2-en-3-yl]-[4-(3-phenyl-propyl)-piperazin-1-yl]-methanone]: testing at 10 µM gave an inhibition of 63%.
Turning to `O=C(NCc1cccs1)C1=NOC2(CCN(C(=O)CCCOc3ccccc3)CC2)C1` [Example 183], the “NA-uptake, 10 μM, % inhibition” value came to 67%.
In the case of `CC(Cc1ccc(Cl)cc1)NC(=O)C1=NOC2(CCN(S(=O)(=O)c3ccc(Cl)s3)CC2)C1` (stereo not drawn) [Example 168, 8-(5-chloro-thiophene-2-sulphonyl)-1-oxa-2,8-diaza-spiro[4,5]dec-2-ene-3-carboxylic acid [2-(4-chloro-phenyl)-1-methyl-ethyl]-amide], the inhibition at 10 µM is 79%.
`O=C(NCCc1cccc(F)c1)C1=NOC2(CCN(S(=O)(=O)Cc3ccccc3)CC2)C1` [Example 78, 8-phenylmethanesulphonyl-1-oxa-2,8-diaza-spiro[4,5]dec-2-ene-3-carboxylic acid [2-(3-fluorophenyl)-ethyl]-amide] gave an inhibition at 10 µM of 42%.
`CN(C)S(=O)(=O)N1CCC2(CC1)CC(C(=O)N1CCN(Cc3ccc(C(C)(C)C)cc3)CC1)=NO2` [Example 189, 3-[4-(4-tert-butyl-benzyl)-piperazine-1-carbonyl]-1-oxa-2,8-diaza-spiro[4,5]dec-2-ene-8-sulphonic acid dimethylamide] gave an inhibition at 10 µM of 45%.
For `O=C(OCc1ccccc1)N1CCN(C(=O)C2=NOC3(CCN(S(=O)(=O)c4ccc(F)cc4)CC3)C2)CC1` [Example 143], the “NA-uptake, 10 μM, % inhibition” value was determined as 47%.
In the case of `O=C(C1=NOC2(CCN(S(=O)(=O)Cc3ccccc3)CC2)C1)N1CC=C(c2ccc(F)cc2)CC1` [Example 215, [4-(4-fluoro-phenyl)-3,6-dihydro-2H-pyridin-1-yl]-(8-phenylmethanesulphonyl-1-oxa-2,8-diaza-spiro[4,5]dec-2-en-3-yl)-methanone], at 10 µM the inhibition was 42%.
`CC(NC(=O)C1=NOC2(CCN(S(=O)(=O)c3ccc(F)cc3)CC2)C1)C(=O)Nc1ccc2ccccc2c1` (stereo not drawn) [Example 198, 8-(4-fluoro-benzenesulphonyl)-1-oxa-2,8-diaza-spiro[4,5]dec-2-ene-3-carboxylic acid [1-(naphthalen-2-ylcarbamoyl)ethyl]-amide] returned an inhibition at 10 µM of 52%.
For the compound `O=C(NCc1cccs1)C1=NOC2(CCN(C(=O)c3ccc(SC(F)(F)F)cc3)CC2)C1` [Example 135, 8-(4-trifluoromethylsulphanyl-benzoyl)-1-oxa-2,8-diaza-spiro[4,5]dec-2-ene-3-carboxylic acid (thiophen-2-ylmethyl)-amide], the inhibition at 10 µM came to 56%.
Same read-out and setting: the figure for `CC(C)CNC(=O)C1=NOC2(CCN(C(=O)c3cccc4ccccc34)CC2)C1` [Example 178, 8-(naphthalene-1-carbonyl)-1-oxa-2,8-diaza-spiro[4,5]dec-2-ene-3-carboxylic acid isobutyl-amide] is 51%.
`O=C(Nc1ccccc1)C1=NOC2(CCN(C(=O)c3ccc(Br)cc3)CC2)C1` [Example 181, 8-(4-bromo-benzoyl)-1-oxa-2,8-diaza-spiro[4,5]dec-2-ene-3-acarboxylic cid phenylamide]: the “NA-uptake, 10 μM, % inhibition” value stood at 51%.

The values are drawn from US8557796B2, “Substituted 1-oxa-2,8-diaza-spiro [4,5] dec-2-ene derivatives and related treatment methods” (Gruenenthal GmbH, priority 2001, dated 2013).
